Structures can show the parent of a compound that is named as a salt. Where two headings read alike, the source gives them in different places.
How the values were obtained:
Human TRPV1 = molecular target: T1, Human TRPV1 (Homo sapiens, UniProt Q8NER1); assay: Evaluation of agonistic properties using human TRPV1 transiently expressing cells; assay type: cell-based; conditions: for TRPV-1-agonistic activity (in words): evaluation test for TRPV-1-agonistic properties, summary of Tables 3 and 4
T1 construct: the TRPV1 gene (GenBank NP_542435.2) had been inserted; expressed in transfected cells; host or cells: HEK293 cells (cat #CCL-82.2, ATCC), transient transfection with pcDNA3.1
T1 sequence (Q8NER1 whole entry): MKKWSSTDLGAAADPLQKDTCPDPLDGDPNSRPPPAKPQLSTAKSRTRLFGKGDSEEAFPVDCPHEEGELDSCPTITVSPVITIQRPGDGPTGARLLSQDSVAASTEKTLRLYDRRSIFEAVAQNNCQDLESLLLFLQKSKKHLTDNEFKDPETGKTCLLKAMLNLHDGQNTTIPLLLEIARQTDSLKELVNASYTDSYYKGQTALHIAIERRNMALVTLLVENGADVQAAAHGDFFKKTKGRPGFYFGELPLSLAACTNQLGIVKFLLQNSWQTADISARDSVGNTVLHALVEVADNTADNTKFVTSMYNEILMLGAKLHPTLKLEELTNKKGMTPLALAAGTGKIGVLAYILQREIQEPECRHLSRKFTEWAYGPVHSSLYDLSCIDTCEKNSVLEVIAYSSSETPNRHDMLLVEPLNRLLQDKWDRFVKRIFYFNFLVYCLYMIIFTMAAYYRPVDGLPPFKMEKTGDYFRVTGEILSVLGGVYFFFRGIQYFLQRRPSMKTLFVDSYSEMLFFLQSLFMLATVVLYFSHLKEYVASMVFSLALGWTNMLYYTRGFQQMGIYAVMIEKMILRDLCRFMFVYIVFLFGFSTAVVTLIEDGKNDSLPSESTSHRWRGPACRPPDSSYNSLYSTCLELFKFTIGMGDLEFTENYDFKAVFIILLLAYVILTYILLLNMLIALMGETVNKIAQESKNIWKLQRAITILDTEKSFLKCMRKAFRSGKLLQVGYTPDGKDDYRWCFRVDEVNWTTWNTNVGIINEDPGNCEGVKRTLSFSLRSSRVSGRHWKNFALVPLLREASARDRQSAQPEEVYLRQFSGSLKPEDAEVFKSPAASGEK
Description: Test Example 1: Evaluation of Agonistic Properties Using Human TRPV1 Transiently Expressing Cells
(1) Generation of Human TRPV1 Transiently Expressing Cells
Human TRPV1 transiently expressing cells were generated and subjected to culture. Specifically, HEK293 cells (cat #CCL-82.2, ATCC) were used as host cells. Human TRPV1 and apoaequorin were transiently expressed by introducing the mammalian cell expression pcDNA3.1 vector (cat #v790-20, Invitrogen) into which the TRPV1 gene (GenBank NP_542435.2) had been inserted.
The Dulbecco's Modified Eagle's Medium (DMEM) medium (cat #11550-043, Thermo Fisher Scientific) containing 10% inactivated fetal bovine serum (cat #10270-106, Thermo Fisher Scientific) was used as the medium, and the culture was carried out in tissue culture dishes (cat #3020-100, Iwaki). During the culture, cells were collected every 2 to 3 days by treating with PBS containing 10% 2.5 g/1-trypsin/[…] solution, phenol red (cat #32777-44, Nacalai Tesque), and passage culture was carried out.
Three days after the passage, cells were collected with 10% trypsin-PBS treatment at a state of about 80% confluency, suspended in a DMEM medium containing 10% fetal bovine serum to 4000 cells/35 μl/well, and seeded into 384-well plates (cat #353962, FALCON).
The day after seeding, Viviren (cat #E6492, Promega) was added (15 μl/well) to a final concentration of 4.5 μM/HBSS (cat #14065-056, Thermo Fisher Scientific)/90 mM HEPES (cat #17514-15, Nacalai Tesque)/0.1% BSA (cat #01281-84, Nacalai Tesque), and after centrifugation, the samples were allowed to stand at room temperature for 2 hours under light-shielded conditions.
(2) Preparation of Test Compounds
For the test compounds, dimethyl sulfoxide solutions were produced at a concentration 1000 times the final concentration, and from these solutions, solutions at concentration 10 times the final concentration were prepared with Hanks/20 mmol/L HEPES/0.10% BSA (cat #01281-84, Nacalai Tesque).
(3) Evaluation of TRPV1-Agonistic Properties
FDSS7000 (Hamamatsu Photonics K.K.) was used for detection of TRPV1 agonist-stimulated luminescence signals. The test compounds were added to plates to which the cells and luminescent substrates had been added. The luminescence signals (center wavelength: 465 nm) after addition of the test compounds were measured, and the Rlu (Max−Min) was calculated.

[1] = Evaluation test for metabolic stability to S9; assay type: in vitro ADME; conditions: liver S9 fraction, 37° C., 15 minutes, final compound concentration 10 nM
Protocol: Test Example 4: Evaluation Test for Metabolic Stability to S9
The compounds were added to a reaction solution in which the liver S9 fraction was diluted with phosphate buffer, and incubation was initiated at 37° C. (final compound concentration 10 nM, final volume 300 μL). After incubation for 15 minutes, the reaction was stopped by adding the reaction solution to acetonitrile, and centrifugation was carried out. After filtering the supernatant through a filter, the amount of compounds was determined using LC/MS/MS. From the amount of compounds obtained, the residual rate 15 minutes after the initiation of the reaction was calculated relative to the amount of compounds before the initiation of the reaction (0 minutes).

[2] = HEK293 cells transiently expressing human TRPV1 and apoaequorin, luminescence signal Rlu (Max-Min), read-out: TRPV1 EC50

SMILES	EC50 (Human TRPV1; [2])	Residual rate (%) [1]	TRPV-1-agonistic activity (in words) (Human TRPV1)	EC50 (Human TRPV1)
COc1cc(CC(=O)Nc2cccc(-c3cccc(OC(=O)C(C)C)c3)c2F)ccc1O [Example 23, 2′-fluoro-3′-[2-(4-hydroxy-3-methoxyphenyl)acetamido][1,1′-biphenyl]-3-yl 2-methylpropanoate]	15.2 nM	<1%	–	–
COc1cc(CC(=O)Nc2cccc(-c3cccc(OC(=O)CC4CCCCC4)c3)n2)ccc1O [Example 32, 3-{6-[2-(4-hydroxy-3-methoxyphenyl)acetamido]pyridin-2-yl}phenyl cyclohexylacetate]	11.6 nM	2%	–	–
COc1cc(CC(=O)Nc2cc(-c3cccc(OC(=O)C(C)C)c3)ccc2OC)ccc1O [Example 20, 3′-[2-(4-hydroxy-3-methoxyphenyl)acetamido]-4′-methoxy[1,1′-biphenyl]-3-yl 2-methylpropanoate]	35.1 nM	<1%	–	–
COc1cc(CC(=O)Nc2cc(-c3cccc(OC(=O)C(C)C)c3)ccc2F)ccc1O [Example 22, 4′-fluoro-3′-[2-(4-hydroxy-3-methoxyphenyl)acetamido][1,1′-biphenyl]-3-yl 2-methylpropanoate]	6.8 nM	<1%	–	–
COc1cc(CC(=O)Nc2cccc(-c3ccc(OC(=O)C(C)C)cc3)c2)ccc1O [Example 4, 3′-[2-(4-hydroxy-3-methoxyphenyl)acetamido][1,1′-biphenyl]-4-yl 2-methylpropanoate]	33.6 nM	<1%	–	–
COc1cc(CC(=O)Nc2cccc(-c3cccc(OC(=O)C4CCCCC4)c3)n2)ccc1O [Example 34, 3-{6-[2-(4-hydroxy-3-methoxyphenyl)acetamido]pyridin-2-yl}phenyl cyclohexanecarboxylate]	12.8 nM	<1%	–	–
COc1cc(CC(=O)Nc2ccnc(-c3cccc(OC(=O)CC4CCCCC4)c3)c2)ccc1O [Example 31, 3-{4-[2-(4-hydroxy-3-methoxyphenyl)acetamido]pyridin-2-yl}phenyl cyclohexylacetate]	14.9 nM	<1%	–	–
COc1cc(CC(=O)Nc2cccc([C@H]3CC[C@@H](OC(=O)Cc4ccc(F)cc4)CC3)c2)ccc1O [Example 8, cis-4-{3-[2-(4-hydroxy-3-methoxyphenyl)acetamido]phenyl}cyclohexyl (4-fluorophenyl)acetate]	6.1 nM	89%	–	–
COc1cc(CC(=O)Nc2ccnc(-c3cccc(OC(=O)C4CCCCC4)c3)c2)ccc1O [Example 33, 3-{4-[2-(4-hydroxy-3-methoxyphenyl)acetamido]pyridin-2-yl}phenyl cyclohexanecarboxylate hydrochloride]	12.5 nM	<1%	–	–
COc1cc(CC(=O)Nc2cccc(-c3cccc(OC(=O)C(C)C)c3)c2)ccc1O [Example 24, 3′-[2-(4-hydroxy-3-methoxyphenyl)acetamido][1,1′-biphenyl]-3-yl 2-methylpropanoate]	3.9 nM	<1%	stronger TRPV-1-agonistic activity	–
COc1cc(CNC(=O)c2cccc(-c3cccc(OC(=O)C(C)C)c3)c2)ccc1O [Example 44, 3′-1{[(4-hydroxy-3-methoxyphenyl)methyl]carbamoyl}[1,1′-biphenyl]-3-yl 2-methylpropanoate]	10.2 nM	<1%	–	–
COc1cc(CC(=O)Nc2cccc(-c3cccc(OC(=O)Cc4ccccc4)c3)c2)ccc1O [Example 18, 3′-[2-(4-hydroxy-3-methoxyphenyl)acetamido][1,1′-biphenyl]-3-yl phenylacetate]	–	<1%	–	5.4 nM
COc1cc(CC(=O)Nc2cccc([C@H]3CC[C@@H](OC(=O)Cc4ccc(Cl)cc4)CC3)c2)ccc1O [Example 14, cis-4-{3-[2-(4-hydroxy-3-methoxyphenyl)acetamido]phenyl}cyclohexyl (4-chlorophenyl)acetate]	6.3 nM	11%	–	–
COc1cc(CC(=O)Nc2cccc(-c3cccc(OC(=O)C(C)C)c3)c2OC)ccc1O [Example 21, 3′-[2-(4-hydroxy-3-methoxyphenyl)acetamido]-2′-methoxy[1,1′-biphenyl]-3-yl 2-methylpropanoate]	6750 nM	<1%	–	–
COc1cc(CC(=O)Nc2cccc([C@H]3CC[C@@H](OC(=O)Cc4cc(F)cc(F)c4)CC3)c2)ccc1O [Example 7, cis-4-{3-[2-(4-hydroxy-3-methoxyphenyl)acetamido]phenyl}cyclohexyl (3,5-difluorophenyl)acetate]	5.6 nM	100%	–	–
COc1cc(CC(=O)Nc2cccc([C@H]3CC[C@@H](OC(=O)Cc4cccc(C)c4)CC3)c2)ccc1O [Example 9, cis-4-{3-[2-(4-hydroxy-3-methoxyphenyl)acetamido]phenyl}cyclohexyl (3-methylphenyl)acetate]	2 nM	88%	–	–
COc1cc(CC(=O)Nc2cccc([C@H]3CC[C@@H](OC(=O)CC4CCCCC4)CC3)c2)ccc1O [Example 5, cis-4-{3-[2-(4-hydroxy-3-methoxyphenyl)acetamido]phenyl}cyclohexyl cyclohexylacetate]	61.2 nM	90%	–	–
COc1cc(CC(=O)Nc2cccc([C@H]3CC[C@@H](OC(=O)Cc4cccs4)CC3)c2)ccc1O [Example 13, cis-4-{3-[2-(4-hydroxy-3-methoxyphenyl)acetamido]phenyl}cyclohexyl (thiophen-2-yl)acetate]	9 nM	89%	–	–
COc1cc(CC(=O)Nc2cccc(-c3ccc(OC(=O)c4ccccc4)cc3)c2)ccc1O [Example 3, 3′-[2-(4-hydroxy-3-methoxyphenyl)acetamido][1,1′-biphenyl]-4-yl benzoate]	341 nM	<1%	–	–
COc1cc(CC(=O)Nc2ccc(F)c(-c3cccc(OC(=O)C(C)C)c3)c2)ccc1O [Example 19, 2′-fluoro-5′-[2-(4-hydroxy-3-methoxyphenyl)acetamido][1,1′-biphenyl]-3-yl 2-methylpropanoate]	2.7 nM	<1%	stronger TRPV-1-agonistic activity	–
COc1cc(CNC(=O)c2cccc(-c3cccc(OC(=O)C(C)C)c3)n2)ccc1O [Example 47, 3-(6-{[(4-hydroxy-3-methoxyphenyl)methyl]carbamoyl}pyridin-2-yl)phenyl 2-methylpropanoate]	148 nM	<1%	–	–
COc1cc(CNC(=O)c2ccnc(-c3cccc(OC(=O)C(C)C)c3)c2)ccc1O [Example 46, 3-(4-{[(4-hydroxy-3-methoxyphenyl)methyl]carbamoyl}pyridin-2-yl)phenyl 2-methylpropanoate]	4.3 nM	<1%	stronger TRPV-1-agonistic activity	–

From patent publication US12590063B2, “Phenol derivative” (Sumitomo Pharma Co., Ltd., priority 2020, dated 2026)
